Data published in US20240228506A1, “RIPK1 INHIBITORS AND METHODS OF USE” (Merck Sharp & Dohme LLC, priority 2021, published 2024).

Biological target: T1, GST-RIPK1 (recombinant GST-RIPK1 kinase domain (residues 1-327)) (Homo sapiens, UniProt Q13546)
T1 construct: recombinant GST-RIPK1 kinase domain (residues 1-327) enzyme; made in house; host or cells: baculovirus-transfected Sf21 insect cells
T1 sequence (Q13546 1-327): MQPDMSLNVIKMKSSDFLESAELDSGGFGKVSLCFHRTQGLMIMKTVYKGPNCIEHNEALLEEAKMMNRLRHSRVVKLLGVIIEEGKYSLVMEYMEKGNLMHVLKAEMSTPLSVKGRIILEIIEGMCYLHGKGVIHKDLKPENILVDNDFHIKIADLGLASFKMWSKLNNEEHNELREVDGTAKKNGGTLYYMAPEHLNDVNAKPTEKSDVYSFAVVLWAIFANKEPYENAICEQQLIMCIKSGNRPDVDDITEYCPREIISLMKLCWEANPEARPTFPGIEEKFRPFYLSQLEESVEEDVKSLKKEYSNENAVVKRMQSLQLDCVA
Test: RIPK1-ADP-Glo enzymatic assay
Format: biochemical
Conditions: 25 nM GST-RIPK1, 300 μM ATP, 3 μM dephosphorylated-MBP; 30 minutes pre-incubation, 150 minutes reaction; ten-point titration
In short: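 Ten-point 1:3 titrations from 100000 nM, 1% DMSO, were preincubated 30 min with 25 nM GST-RIPK1 (1-327) before starting with 300 μM ATP plus 3 μM dephosphorylated MBP; 150 min reaction. ADP-Glo luminescence measured ATP-to-ADP conversion; EC50 by four-parameter sigmoidal regression.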

Row | IC50 [µM] | Structure (SMILES)
1 | 0.042 | CC(C)(C(=O)N1C[C@@H]2C[C@H]1c1cncc(C#Cc3cccc(F)c3)c1O2)C(F)F [Compound 2-42, 3,3-difluoro-1-((2S,5S)-9-((3-fluorophenyl)ethynyl)-2,3-dihydro-2,5-methanopyrido[3,4-f][1,4]oxazepin-4(5H)-yl)-2,2-dimethylpropan-1-one]
2 | 0.048 | CC(C)(C(=O)N1C[C@@H]2C[C@H]1c1cncc(C#Cc3ccc(F)cc3F)c1O2)C(F)F [Compound 2-43, 1-((2S,5S)-9-((2,4-difluorophenyl)ethynyl)-2,3-dihydro-2,5-methanopyrido[3,4-f][1,4]oxazepin-4(5H)-yl)-3,3-difluoro-2,2-dimethylpropan-1-one]
3 | 0.034 | CC(C)(C(=O)N1C[C@@H]2C[C@H]1c1cncc(C#Cc3ccccc3F)c1O2)C(F)F [Compound 2-44, 3,3-difluoro-1-((2S,5S)-9-((2-fluorophenyl)ethynyl)-2,3-dihydro-2,5-methanopyrido[3,4-f][1,4]oxazepin-4(5H)-yl)-2,2-dimethylpropan-1-one]
4 | 0.032 | CC(C)(C(=O)N1C[C@@H]2C[C@H]1c1cncc(C#Cc3cncnc3)c1O2)C(F)F [Compound 2-45, 3,3-difluoro-2,2-dimethyl-1-((2S,5S)-9-(pyrimidin-5-ylethynyl)-2,3-dihydro-2,5-methanopyrido[3,4-f][1,4]oxazepin-4(5H)-yl)propan-1-one]
5 | 0.098 | CC(C)(C(=O)N1C[C@@H]2C[C@H]1c1cncc(C#CCc3ccccc3)c1O2)C(F)F [Compound 2-46, 3,3-difluoro-2,2-dimethyl-1-((2S,5S)-9-(3-phenylprop-1-yn-1-yl)-2,3-dihydro-2,5-methanopyrido[3,4-f][1,4]oxazepin-4(5H)-yl)propan-1-one]
6 | 0.066 | CC(C)(C(=O)N1C[C@@H]2C[C@H]1c1cncc(C#Cc3ccccc3)c1O2)C(F)F [Compound 2-47, 3,3-Difluoro-2,2-dimethyl-1-((2S,5S)-9-(phenylethynyl)-2,3-dihydro-2,5-methanopyrido[3,4-f][1,4]oxazepin-4(5H)-yl)propan-1-one]
7 | 0.036 | CC(C)(C(=O)N1C[C@@H]2C[C@H]1c1cncc(C#Cc3cccnc3)c1O2)C(F)F [Compound 2-48, 3,3-difluoro-2,2-dimethyl-1-((2S,5S)-9-(pyridin-3-ylethynyl)-2,3-dihydro-2,5-methanopyrido[3,4-f][1,4]oxazepin-4(5H)-yl)propan-1-one]
8 | 0.083 | CC(C)(C(=O)N1C[C@@H]2C[C@H]1c1cncc(C#Cc3cnccn3)c1O2)C(F)F [Compound 2-49, 3,3-difluoro-2,2-dimethyl-1-((2S,5S)-9-(pyrazin-2-ylethynyl)-2,3-dihydro-2,5-methanopyrido[3,4-f][1,4]oxazepin-4(5H)-yl)propan-1-one]
9 | 0.015 | O=C(N1C[C@@H]2C[C@H]1c1cncc(C#Cc3cncnc3)c1O2)C12CCC(C(F)(F)F)(CC1)C2 [Compound 2-50, ((2S,5S)-9-(Pyrimidin-5-ylethynyl)-2,3-dihydro-2,5-methanopyrido[3,4-f][1,4]oxazepin-4(5H)-yl)(4-(trifluoromethyl)bicyclo[2.2.1]heptan-1-yl)methanone]
10 | 0.017 | O=C(N1C[C@@H]2C[C@H]1c1cncc(C#Cc3cccnn3)c1O2)C12CCC(C(F)(F)F)(CC1)C2 [Compound 2-51, ((2S,5S)-9-(pyridazin-3-ylethynyl)-2,3-dihydro-2,5-methanopyrido[3,4-f][1,4]oxazepin-4(5H)-yl)(4-(trifluoromethyl)bicyclo [2.2.1]heptan-1-yl)methanone]
11 | 0.03 | O=C(N1C[C@@H]2C[C@H]1c1cncc(C#Cc3ccncc3)c1O2)C12CCC(C(F)(F)F)(CC1)C2 [Compound 2-52, ((2S,5S)-9-(pyridin-4-ylethynyl)-2,3-dihydro-2,5-methanopyrido[3,4-f][1,4]oxazepin-4(5H)-yl)(4-(trifluoromethyl)bicyclo [2.2.1]heptan-1-yl)methanone]
12 | 0.017 | O=C(N1C[C@@H]2C[C@H]1c1cncc(C#Cc3cnc4ccoc4c3)c1O2)C12CCC(C(F)(F)F)(CC1)C2 [Compound 2-53, ((2S,5S)-9-(furo[3,2-b]pyridin-6-ylethynyl)-2,3-dihydro-2,5-methanopyrido[3,4-f][1,4]oxazepin-4(5H)-yl)(4-(trifluoromethyl)bicyclo [2.2.1]heptan-1-yl)methanone]
13 | 0.018 | O=C(N1C[C@@H]2C[C@H]1c1cncc(C#Cc3cscn3)c1O2)C12CCC(C(F)(F)F)(CC1)C2 [Compound 2-54, ((2S,5S)-9-(thiazol-4-ylethynyl)-2,3-dihydro-2,5-methanopyrido[3,4-f][1,4]oxazepin-4(5H)-yl)(4-(trifluoromethyl)bicyclo [2.2.1]heptan-1-yl)methanone]
14 | 0.026 | Cn1cncc1C#Cc1cncc2c1O[C@H]1C[C@@H]2N(C(=O)C23CCC(C(F)(F)F)(CC2)C3)C1 [Compound 2-55, ((2S,5S)-9-((1-methyl-1H-imidazol-5-yl)ethynyl)-2,3-dihydro-2,5-methanopyrido[3,4-f][1,4]oxazepin-4(5H)-yl)(4-(trifluoromethyl)bicyclo [2.2.1]heptan-1-yl)methanone]
15 | 0.023 | O=C(N1C[C@@H]2C[C@H]1c1cncc(C#CCn3ccnc3)c1O2)C12CCC(C(F)(F)F)(CC1)C2 [Compound 2-56, ((2S,5S)-9-(3-(1H-imidazol-1-yl)prop-1-yn-1-yl)-2,3-dihydro-2,5-methanopyrido[3,4-f][1,4]oxazepin-4(5H)-yl)(4-(trifluoromethyl)bicyclo [2.2.1]heptan-1-yl)methanone]
16 | 0.078 | O=C(N1C[C@@H]2C[C@H]1c1cncc(C#CCO)c1O2)C12CCC(C(F)(F)F)(CC1)C2 [Compound 2-57, ((2S,5S)-9-(3-hydroxyprop-1-yn-1-yl)-2,3-dihydro-2,5-methanopyrido[3,4-f][1,4]oxazepin-4(5H)-yl)(4-(trifluoromethyl)bicyclo[2.2.1]heptan-1-yl)methanone]
17 | 0.012 | O=C(N1C[C@@H]2C[C@H]1c1cncc(C#Cc3cccnc3)c1O2)C12CCC(C(F)(F)F)(CC1)C2 [Compound 2-58, ((2S,5S)-9-(pyridin-3-ylethynyl)-2,3-dihydro-2,5-methanopyrido[3,4-f][1,4]oxazepin-4(5H)-yl)(4-(trifluoromethyl)bicyclo [2.2.1]heptan-1-yl)methanone]
18 | 0.022 | O=C(N1C[C@@H]2C[C@H]1c1cncc(C#Cc3ccc(F)cc3F)c1O2)C12CCC(C(F)(F)F)(CC1)C2 [Compound 2-59, ((2S,5S)-9-((2,4-difluorophenyl)ethynyl)-2,3-dihydro-2,5-methanopyrido[3,4-f][1,4]oxazepin-4(5H)-yl)(4-(trifluoromethyl)bicyclo[2.2.1]heptan-1-yl)methanone]
19 | 0.073 | O=C(N1C[C@@H]2C[C@H]1c1cncc(C#Cc3ccccn3)c1O2)C12CCC(C(F)(F)F)(CC1)C2 [Compound 2-60, ((2S,5S)-9-(pyridin-2-ylethynyl)-2,3-dihydro-2,5-methanopyrido[3,4-f][1,4]oxazepin-4(5H)-yl)(4-(trifluoromethyl)bicyclo [2.2.1]heptan-1-yl)methanone]
20 | 0.022 | O=C(N1C[C@@H]2C[C@H]1c1cncc(C#Cc3cnccn3)c1O2)C12CCC(C(F)(F)F)(CC1)C2 [Compound 2-61, ((2S,5S)-9-(pyrazin-2-ylethynyl)-2,3-dihydro-2,5-methanopyrido[3,4-f][1,4]oxazepin-4(5H)-yl)(4-(trifluoromethyl)bicyclo [2.2.1]heptan-1-yl)methanone]
21 | 0.017 | Cc1ccc(C#Cc2cncc3c2O[C@H]2C[C@@H]3N(C(=O)C34CCC(C(F)(F)F)(CC3)C4)C2)cn1 [Compound 2-62]
22 | 0.014 | Cc1ccncc1C#Cc1cncc2c1O[C@H]1C[C@@H]2N(C(=O)C23CCC(C(F)(F)F)(CC2)C3)C1 [Compound 2-63, ((2S,5S)-9-((4-methylpyridin-3-yl)ethynyl)-2,3-dihydro-2,5-methanopyrido[3,4-f][1,4]oxazepin-4(5H)-yl)(4-(trifluoromethyl)bicyclo [2.2.1]heptan-1-yl)methanone]
23 | 0.016 | O=C(N1C[C@@H]2C[C@H]1c1cncc(C#Cc3ccccc3)c1O2)C12CCC(C(F)(F)F)(CC1)C2 [Compound 2-64, ((2S,5S)-9-(phenylethynyl)-2,3-dihydro-2,5-methanopyrido[3,4-f][1,4]oxazepin-4(5H)-yl)(4-(trifluoromethyl)bicyclo [2.2.1]heptan-1-yl)methanone]
24 | 0.018 | COc1ccc(C#Cc2cncc3c2O[C@H]2C[C@@H]3N(C(=O)C34CCC(C(F)(F)F)(CC3)C4)C2)cc1 [Compound 2-65, ((2S,5S)-9-((4-methoxyphenyl)ethynyl)-2,3-dihydro-2,5-methanopyrido[3,4-f][1,4]oxazepin-4(5H)-yl)(4-(trifluoromethyl)bicyclo [2.2.1]heptan-1-yl)methanone]
25 | 0.018 | COc1cccc(C#Cc2cncc3c2O[C@H]2C[C@@H]3N(C(=O)C34CCC(C(F)(F)F)(CC3)C4)C2)c1 [Compound 2-66, ((2S,5S)-9-((3-methoxyphenyl)ethynyl)-2,3-dihydro-2,5-methanopyrido[3,4-f][1,4]oxazepin-4(5H)-yl)(4-(trifluoromethyl)bicyclo [2.2.1]heptan-1-yl)methanone]
